Assay results reported in patent publication US20090029355A1, “Abnormalities of Phosphatase 2A (PP2A) for Diagnosis and Treatment of Alzheimer's Disease” (priority 2004, published 2009).
Entries after “also recorded” stand apart in the source; their conditions may differ.

Assays:
[1] = test system: Erk1/2 phosphorylation in AC cells; test: Erk1/2 phosphorylation on Western blots in AC fibroblasts; type: cell-based, human; conditions: about 10 nM OA, about 10 nM BK, about 10 min
Procedure: (§1) After serum-starving overnight, cells are treated as such: 1) BK treatment for about 10 min, 2) pretreatment with about 10 nM OA for about 15 min followed by BK treatment and another dose of OA for about 10 min. Reactions are terminated, cells are lysed in a lysis buffer, and the extent of Erk1/2 phosphorylation and levels of the total Erk1/2 are determined using Western blots. After normalizing with signals of the total Erk1/2, the ratio of BK-stimulated Erk1/2 phosphorylation in the presence and absence of OA is calculated. […]
(§2) Erk1/2 phosphorylation from different treatments was determined on Western blots using an anti-phospho-Erk1/2 antibody (Cell Signaling Technology), the total amount of Erk1/2 protein loaded on the SDS gel was determined by an anti-regular Erk1/2 antibody (Upstate Biotechnology), and was used to normalize the detected phospho-Erk1/2 signals.
(§3) (1) Quantitative PCR values for PP2A mRNA in each sample of 19 AC and 19 AD cell lines were normalized by those of GPDH in the same sample. […] The densitometric values for PP2A were normalized by those of annexin 11 and quantified with UN-SCAN-IT software (Silk Scientific, Inc.) (3) To assess Erk1/2 phosphorylation, ratios for phospho-Erk1/2 over those of the total Erk1/2 were calculated. […]

[2] = test system: Erk1/2 phosphorylation in AD cells; test: Erk1/2 phosphorylation on Western blots in AD fibroblasts; type: cell-based, human; conditions: about 10 nM OA, about 10 nM BK, about 10 min
Procedure: as §1, §2, §3

SMILES: C=C1[C@@H](O)[C@@H]2O[C@]3(CC[C@H](/C=C/[C@@H](C)[C@@H]4CC(C)=C[C@@]5(O[C@H](C[C@@](C)(O)C(=O)O)CC[C@H]5O)O4)O3)CC[C@H]2O[C@@H]1[C@@H](O)C[C@H](C)[C@H]1O[C@@]2(CCCCO2)CC[C@H]1C [OA, okadiac acid]
- Erk1/2 dephosphorylation after BK stimulation in the presence of OA [1]: inhibited Erk1/2 dephosphorylation; also recorded: significantly inhibited
- BK-stimulated Erk1/2 phosphorylation on addition of OA [2]: did not further increase Erk1/2 phosphorylation
